Measurements as given in article PMC7251927, “Impact of Acute and Chronic Amyloid-β Peptide Exposure on Gut Microbial Commensals in the Mouse” (Frontiers in Microbiology, 2020).

Tests used:
[1] = Gut transition time of orally administered TAMRA-labeled Aβ; type: in vivo, mouse; conditions: 10 μg oral; for Gut segment in which TAMRA fluorescence was detected (2 cm sections, 1 = stomach to 12 = rectal): one animal, technical duplicates
Description: (§1) Animals were lightly anesthetized with Isoflurane and 10 μg of peptide or solvent (10 mM NH4OH) administered slowly into the oral cavity. Mice were kept in manual fixation up to ingestion of the fluid to prevent aspiration.
(§2) Animals were deeply anesthetized with isoflurane and sacrificed by decapitation. For microbiome determination, feces pellets close to the rectum were taken. For assessing fluorescence after feeding of TAMRA-labeled Aβ, the whole gut was placed in ice cold isotonic sodium chloride to prevent further peristalsis movement. Segments of 2 cm length were then chopped starting from the stomach, the content collected by longitudinal opening and stored on ice until further use.
After oral application of TAMRA-labeled Aβ or NH4OH as control and sacrifice of the animals 2, 4, or 24 h later, chyme samples were diluted with 500 μl ice cold PBS, incubated for 5 min and centrifuged. Fluorescence was measured by using 50 μl of the supernatant in duplicates (Exc 540 nm and Em 580 nm, FLUOstar Optima, BMG Labtech GmbH, Ortenberg, Germany) at intervals of 1 min over a period of 1 h at 37°C with shaking before every measurement. The mean of the values of the measurements between 15 and 45 min was used to calculate the difference between the TAMRA-labeled Aβ-treated animals and solvent-treated control animals.
FIGURE 2 Stability and time-dependent localization of per os administered Aβ peptides in the murine gastrointestinal tract. (A) TAMRA-labeled Aβ peptide was incubated in two different concentrations [high (H): 0.025 μM; low (L): 0.005 μM] with PBS-diluted gastric content of wild type mice for 2 h at 37°C. Solvent of the peptide was used as a negative control (–). Additionally, samples with PBS instead of chyme were incubated as described (buffer). Proteins were separated on PAA gel and transferred to nitrocellulose. […] (B) To assess the passage of orally administered Aβ peptides, wild type or 5xFAD mice were fed with 10 μg of TAMRA-labeled Aβ peptides and sacrificed at indicated time points. TAMRA-dependent fluorescence was determined in the chyme of 2 cm gut sections numbered from 1 (oral end = stomach) to 12 (rectal section). Values are presented as measured difference between the TAMRA-Aβ-treated animals and solvent-treated control animals (one animal per time point, technical duplicates).

[2] = tested on: murine fecal microorganisms; assay: Bacterial viability assay (BacTiter Glo) on diluted fecal samples; type: cell-based, mouse; conditions: 2 μM peptide, 10 min incubation, luminescence, n = 13 animals
Description: Freshly collected fecal pellets were suspended in isotonic sodium chloride solution (0.9%, 100 μl/mg) using a hand-held electric stirrer (Xenox, Fähren, Germany). Aliquots of 50 μl were supplemented with 5 μl of peptide solution in 0.4 mM NH4OH buffered in PBS. After 10 min incubation at room temperature under careful mixing for every 2 min, 20 μl of this suspension were added to 4 ml of thioglycollate bouillon (Becton Dickinson GmbH, Heidelberg, Germany) and kept for overnight at […]. The following day, 1 μl of the diluted fecal suspension was spread on Schaedler agar plates (Becton Dickinson GmbH, Heidelberg, Germany) and incubated for 48 h anaerobically (Anoxomat, Mart Microbiology B.V, Drachten, Netherlands). Lastly, colony forming units (CFU) were counted and normalized to controls from the same donor mouse incubated with scrambled peptide.
After incubation of diluted feces samples with Aβ peptide or scrambled control for plating (see above), additional 1:100 dilutions were prepared and viability measured by using the BacTiter Glo assay as indicated by the vendor (Promega, Mannheim, Germany). Relative luminescence was measured and normalized to controls from the same donor mouse incubated with scrambled peptide.
Viability was measured and calculated in percent of scrambled peptide treated samples (n = 13 animals per group,♂ = 6–7, ♀ = 6–7). […]

Lactobacillaceae = assay: Family-specific cultivation, CFU on Petrifilm plates selective for Lactobacillaceae; type: cell-based, mouse; conditions: 2 μM, plates 20 h at 37°C, n = 10–11
Description: (§3) For assessing toxic effects of Aβ on specific microbial families, freshly collected feces was suspended and incubated with 2 μM peptide solution as described above. Afterward, feces suspensions were diluted with 0.9% sodium chloride solution for plating 1 ml on 3M^TM-Petrifilm plates specific for Enterobacteriaceae and Lactobacillaceae (3M Deutschland GmbH, Neuss, Germany). Plates were incubated for 20 h at 37°C. CFU were counted and normalized to samples from the same donor mouse incubated with scrambled peptide.
(§4) Viability was measured and calculated in percent of scrambled peptide treated samples (n = 13 animals per group,♂ = 6–7, ♀ = 6–7). […] Subsequently, aliquots of further diluted bacteria suspension were plated on Schaedler agar and incubated anaerobically for 48 h at 37°C. Number of colony forming units (CFU) of samples treated with scrambled peptide control were set to 100% (n = 7 animals per group; ♂ = 3, ♀ = 4). […] Datapoints for individual normalized measurements are shown in each graph (*p < 0.05; **p < 0.01).

Enterobacteriaceae = assay: Family-specific cultivation, CFU on Petrifilm plates selective for Enterobacteriaceae; type: cell-based, mouse; conditions: 2 μM, plates 20 h at 37°C
Description: as §3, §4

gut microbiome = assay: 16S rDNA sequencing of the gut microbiome after oral peptide application; type: in vivo, mouse; conditions: female wild type mice, 10 μg peptide oral once, feces
Description: as §1, §2

Enterococcus faecalis = tested on: Enterococcus faecalis; set-up: method as in Soscia et al., 2010; conditions: single microbial species; ref Soscia et al., 2010; cited from earlier work
Candida albicans = tested on: Candida albicans; set-up: method as in Soscia et al., 2010; conditions: single microbial species; ref Soscia et al., 2010; cited from earlier work

With “TAMRA-labeled Aβ42: TAMRA-labeled Aβ peptide (AnaSpec) used for detecting gut transition of Aβ” the “Gut segment in which TAMRA fluorescence was detected (2 cm sections, 1 = stomach to 12 = rectal)” value ([1]; 5xFAD transgenic mouse, 2 h after treatment) was 11, the “Gut segment in which TAMRA fluorescence was detected (2 cm sections, 1 = stomach to 12 = rectal)” value ([1]; 5xFAD transgenic mouse, 4 h after treatment) was 11 and the “TAMRA fluorescence signal in chyme of gut segments” value ([1]; wild type and 5xFAD mice, 24 h after treatment, any sample) was “No signal could be detected”. The “Gut segment in which TAMRA fluorescence was detected (2 cm sections, 1 = stomach to 12 = rectal)” value ([1]; wild type mouse, 4 h after treatment) was 11.
For human Aβ1–42 [Aβ42], the “Viability of fecal microorganisms vs scrambled peptide treated samples” value ([2]; fecal samples from transgenic 5xFAD mice) was “no such toxic effect”, the “Viability of fecal microorganisms vs scrambled peptide treated samples” value ([2]; fecal samples from wild type mice) was “significantly reduce viability” and the “Lactobacillaceae CFU vs scrambled peptide control” value (Lactobacillaceae; fecal material from transgenic 5xFAD mice) was “no significant effects”. The “Lactobacillaceae CFU vs scrambled peptide control” value (Lactobacillaceae; fecal material from wild type mice) was “significantly reduced”, the “Enterobacteriaceae CFU vs scrambled peptide control” value (Enterobacteriaceae; fecal material from transgenic 5xFAD mice, n = 10–11, p = 0.09) was “non-significant reduction” and the “Enterobacteriaceae CFU vs scrambled peptide control” value (Enterobacteriaceae; fecal material from wild type mice, n = 10–11) was “significantly reduced”. For the same substance, the “Beta diversity, Bray–Curtis dissimilarity (CAP), difference vs scrambled Aβ-fed animals” value (gut microbiome) was “not significant”, the “Beta diversity, Jaccard distance based ordination (CAP), vs scrambled Aβ-fed animals” value (gut microbiome) was “significantly differed” and the “Antimicrobial effect on Enterococcus faecalis” value (Enterococcus faecalis) was “antimicrobial effect”. The “Antimicrobial effect on Candida albicans” value (Candida albicans) was “antimicrobial effect”.
